We go through three compounds from article PMC3479967 (Evidence-based Complementary and Alternative Medicine : eCAM, 2012).

In one data set the target is T1, UGT1A8 (Homo sapiens, UniProt Q9HAW9).
T1 sequence (Q9HAW9 26-530): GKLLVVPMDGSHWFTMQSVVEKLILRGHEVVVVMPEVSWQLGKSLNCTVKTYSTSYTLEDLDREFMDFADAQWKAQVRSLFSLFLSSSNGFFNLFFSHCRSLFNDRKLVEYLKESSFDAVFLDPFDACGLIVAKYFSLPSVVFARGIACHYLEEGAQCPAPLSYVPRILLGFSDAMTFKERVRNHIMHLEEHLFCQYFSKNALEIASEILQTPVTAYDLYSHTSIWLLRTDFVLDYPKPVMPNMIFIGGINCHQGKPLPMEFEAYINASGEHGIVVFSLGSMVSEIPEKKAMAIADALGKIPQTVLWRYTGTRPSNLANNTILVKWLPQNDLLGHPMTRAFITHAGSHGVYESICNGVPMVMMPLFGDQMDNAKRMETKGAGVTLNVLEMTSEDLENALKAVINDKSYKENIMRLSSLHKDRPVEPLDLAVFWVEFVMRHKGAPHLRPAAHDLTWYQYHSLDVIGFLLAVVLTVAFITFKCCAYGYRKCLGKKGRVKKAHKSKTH
Description: Inhibition of recombinant UGT1A8 activity (4-MU glucuronidation). On the procedure:
(§1) A panel of recombinant human UGT supersomes (UGT1A1, UGT1A3, UGT1A4, UGT1A6, UGT1A7, UGT1A8, UGT1A9, UGT1A10, UGT2B4, UGT2B7, UGT2B15, and UGT2B17) expressed in baculovirus-infected insect cells were purchased from BD Gentest Corp. (Woburn, MA, USA).
(§2) 4-MU, a nonselective substrate of UGTs, was used as probe substrate for all UGTs except UGT1A4. Incubations with each individual enzyme were conducted using conditions previously described. There was a 5 min preincubation step at 37°C before the reaction was started by addition of UDPGA. The incubation mixtures were then centrifuged at 20,500 ×g for 15 min to obtain the supernatant. Aliquots (20 μL) were then analyzed by HPLC. The HPLC system (SHIMADZU, Kyoto, Japan) consisted of an SCL-10A system controller, two LC-10AT pumps, a SIL-10A auto injector, and a SPD-10AVP UV detector. Chromatographic separation was achieved using a Kromasil ODS column (4.6 × 150 mm I.D., 5 μm particle size) at a flow rate of 1 mL/min and UV detection at 316 nm. The mobile phase consisted of 10 mM KH2PO4, pH 2.7 (A) and acetonitrile (B). The following gradient was applied at a flow rate of 1 mL/min: 0–4 min 80% A and 20% B, 4.1–8 min 50% A and 50% B, 8.1–12 min, 30% A and 70% B. All experiments were performed in two independent experiments in duplicate.
(§3) A typical incubation mixture contained recombinant human UGTs, 5 mM MgCl2, 5 mM UDPGA, 50 μg/mg protein alamethicin, 50 mM Tris-HCl buffer (pH 7.4), and various probe substrates of UGTs in the absence or presence of different concentrations of inhibitors. […] The final concentration of DMSO in the incubation system was 1% (v/v). […]
(§4) Inhibition data from experiments were graphically represented by Dixon plots. K i values were calculated by nonlinear regression using the equations for competitive inhibition (1), noncompetitive inhibition (2), or mixed inhibition (3), [22] […] The type of inhibition was determined from the enzyme inhibition models. Goodness of fit to kinetic and inhibition models was assessed from the F statistic, r ^2 values, parameter standard error estimates, and 95% confidence intervals. […]

The nature of data set [1]: Calculation of possible maximum concentrations in gut lumen. Conditions: calculated, after a single oral administration of Epimedium pubescens decoction. On the set-up: species or system human. The text has this: The reported V L was 1.65 L/70 kg. […] Here we arbitrarily assumed the ratio in rat equaled to that in human blood, and the values of their oral bioavailability were consistent.

For the next data set, the target named is T2, UGT2B15 (Homo sapiens, UniProt P54855).
T2 sequence (P54855 24-530): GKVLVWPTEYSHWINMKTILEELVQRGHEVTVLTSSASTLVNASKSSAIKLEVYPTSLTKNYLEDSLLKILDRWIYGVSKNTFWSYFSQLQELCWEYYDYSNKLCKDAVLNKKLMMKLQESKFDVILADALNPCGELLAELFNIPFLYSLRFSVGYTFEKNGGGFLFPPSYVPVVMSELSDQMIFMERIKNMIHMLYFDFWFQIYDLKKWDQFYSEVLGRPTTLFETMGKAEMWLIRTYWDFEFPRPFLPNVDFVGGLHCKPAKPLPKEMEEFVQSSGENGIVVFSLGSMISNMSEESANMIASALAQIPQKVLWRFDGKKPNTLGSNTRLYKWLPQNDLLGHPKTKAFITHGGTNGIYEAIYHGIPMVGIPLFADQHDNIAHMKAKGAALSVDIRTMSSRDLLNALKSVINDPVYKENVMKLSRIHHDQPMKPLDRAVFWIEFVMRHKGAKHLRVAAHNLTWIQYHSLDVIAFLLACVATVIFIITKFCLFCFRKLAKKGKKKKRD
Kind of data set: Inhibition of recombinant UGT2B15 activity (4-MU glucuronidation). On the procedure:
as §1, §2, §3, §4

Molecules are shown by their SMILES.

As usually defined, the IC50 is the concentration that gives 50% inhibition. On to `COc1ccc(-c2oc3c(CC=C(C)C)c(O[C@@H]4O[C@H](CO)[C@@H](O)[C@H](O)[C@H]4O)cc(O)c3c(=O)c2O[C@@H]2O[C@@H](C)[C@H](O)[C@@H](O)[C@H]2O)cc1` [Icariin], for which the IC50 at UGT1A8 and at UGT2B15 was over 100 µM in each case. Besides, the “Possible maximum concentration in human gut lumen” value (from here on “Possible maximum concentration”) in data set [1] is reported as “about 9.9 μM”.

As for `COc1ccc(-c2oc3c(CC=C(C)C)c(O[C@@H]4O[C@H](CO)[C@@H](O)[C@H](O)[C@H]4O)cc(O)c3c(=O)c2O)cc1` [Icariside I], the IC50 on UGT1A8 and at UGT2B15 was over 100 µM in each case. Besides, the “Possible maximum concentration” value in data set [1] is about 0.2 µM.

For the compound `COc1ccc(-c2oc3c(CC=C(C)C)c(O)cc(O)c3c(=O)c2O)cc1` [Icaritin], the IC50 on UGT1A8 and on UGT2B15 was over 100 µM in each case. Also, the “Possible maximum concentration” value in data set [1] was about 3.8 µM.
